The values below are quoted from earlier work in patent US20210123868A1, “REAGENT COMPOSITION FOR PH MEASUREMENT” (MIURA CO., LTD., priority 2018, published 2021).

The conditions of this data set: value at 25° C.
Take alizarin yellow: the “acid dissociation constant (pKa)” value is reported as 11.06.

Regarding `Cc1c(C2(c3cc(Br)c(O)c(Br)c3C)OS(=O)(=O)c3ccccc32)cc(Br)c(O)c1Br` [bromocresol green], the “acid dissociation constant (pKa)” value is 4.7.

With `Cc1cc(C2(c3cc(C)c(O)c(Br)c3)OS(=O)(=O)c3ccccc32)cc(Br)c1O` [bromocresol purple], the “acid dissociation constant (pKa)” value is 6.3.
